Measurements taken from ChEMBL document CHEMBL1154797, “Synthesis, anti-bacterial and anti-fungal activities of some novel Schiff bases containing 2,4-disubstituted thiazole ring” (2010).
Values after ≈ are worked out from the molar mass of the structure shown.

Experiments:
Candida albicans [1] = assay type: functional
Description: Antifungal activity against Candida albicans at MIC after 72 hrs by disk diffusion assay

Candida albicans [2] = experiment: Antifungal activity against Candida albicans; assay type: functional
Cryptococcus neoformans [3] = assay type: functional
Description: Antifungal activity against Cryptococcus neoformans at MIC after 72 hrs by disk diffusion assay

Cryptococcus neoformans [4] = experiment: Antifungal activity against Cryptococcus neoformans; assay type: functional
Aspergillus flavus [5] = assay type: functional
Description: Antifungal activity against Aspergillus flavus at MIC after 72 hrs by disk diffusion assay

Aspergillus flavus [6] = experiment: Antifungal activity against Aspergillus flavus; assay type: functional
Candida tropicalis [7] = assay type: functional
Description: Antifungal activity against Candida tropicalis at MIC after 72 hrs by disk diffusion assay

Candida tropicalis [8] = experiment: Antifungal activity against Candida tropicalis; assay type: functional
Klebsiella pneumoniae [9] = experiment: Antibacterial activity against Klebsiella pneumoniae at MIC after 24 hrs by disk diffusion assay; assay type: functional
Klebsiella pneumoniae [10] = experiment: Antibacterial activity against Klebsiella pneumoniae; assay type: functional
Staphylococcus aureus [11] = experiment: Antibacterial activity against Staphylococcus aureus at MIC after 24 hrs by disk diffusion assay; assay type: functional
Salmonella enterica [12] = experiment: Antibacterial activity against Salmonella typhi at MIC after 24 hrs by disk diffusion assay; assay type: functional, Salmonella enterica subsp. enterica serovar Typhi
Salmonella enterica [13] = experiment: Antibacterial activity against Salmonella typhi; assay type: functional, Salmonella enterica subsp. enterica serovar Typhi
Staphylococcus aureus [14] = experiment: Antibacterial activity against Staphylococcus aureus; assay type: functional
Vibrio cholerae [15] = experiment: Antibacterial activity against Vibrio cholerae at MIC after 24 hrs by disk diffusion assay; assay type: functional
Vibrio cholerae [16] = experiment: Antibacterial activity against Vibrio cholerae; assay type: functional
Pseudomonas aeruginosa [17] = experiment: Antibacterial activity against Pseudomonas aeruginosa at MIC after 24 hrs by disk diffusion assay; assay type: functional
Pseudomonas aeruginosa [18] = experiment: Antibacterial activity against Pseudomonas aeruginosa; assay type: functional

Row | SMILES | diameter of the inhibition zone (DIZ) (Candida albicans [1]) | MIC (Candida albicans [2]) | diameter of the inhibition zone (DIZ) (Cryptococcus neoformans [3]) | MIC (Cryptococcus neoformans [4]) | diameter of the inhibition zone (DIZ) (Aspergillus flavus [5]) | MIC (Aspergillus flavus [6]) | further results
1 | Brc1ccc(-c2csc(N/N=C/c3ccccc3)n2)cc1 | 15 mm | 12.5 mg/L (≈ 34.9 µM) | 15 mm | 12.5 mg/L (≈ 34.9 µM) | 16 mm | 12.5 mg/L (≈ 34.9 µM) | diameter of the inhibition zone (DIZ) (Candida tropicalis [7]): 14 mm; MIC (Candida tropicalis [8]): 25 mg/L (≈ 69.8 µM)
2 | O=C(O)c1cn(C2CC2)c2cc(N3CCNCC3)c(F)cc2c1=O [CIPROFLOXACIN] |  |  |  |  |  |  | diameter of the inhibition zone (DIZ) (Klebsiella pneumoniae [9]): 23 mm; MIC (Klebsiella pneumoniae [10]): 6.25 mg/L (≈ 18.9 µM); diameter of the inhibition zone (DIZ) (Staphylococcus aureus [11]): 25 mm; diameter of the inhibition zone (DIZ) (Salmonella enterica [12]): 18 mm; MIC (Salmonella enterica [13]): 6.25 mg/L (≈ 18.9 µM)
3 | COc1ccc(-c2csc(N/N=C/c3ccccc3)n2)cc1 | 13 mm | 12.5 mg/L (≈ 40.4 µM) | 14 mm | 12.5 mg/L (≈ 40.4 µM) | 13 mm | 12.5 mg/L (≈ 40.4 µM) | 
4 | Brc1ccc(-c2csc(NN=C3CCCCC3)n2)cc1 | 17 mm | 12.5 mg/L (≈ 35.7 µM) | 16 mm | 12.5 mg/L (≈ 35.7 µM) | 16 mm | 12.5 mg/L (≈ 35.7 µM) | diameter of the inhibition zone (DIZ) (Candida tropicalis [7]): 14 mm; MIC (Candida tropicalis [8]): 12.5 mg/L (≈ 35.7 µM)
5 | COc1ccc(/C=N/Nc2nc(-c3ccc(OC)cc3)cs2)cc1 |  |  |  |  |  |  | diameter of the inhibition zone (DIZ) (Staphylococcus aureus [11]): <10 mm; MIC (Staphylococcus aureus [14]): 50 mg/L (≈ 147 µM)
6 | Brc1ccc(-c2csc(N/N=C/c3c[nH]c4ccccc34)n2)cc1 |  |  | 13 mm | 25 mg/L (≈ 62.9 µM) |  |  | 
7 | COc1ccc(-c2csc(N/N=C(\c3ccccc3)C(O)c3ccccc3)n2)cc1 (stereo not given) |  |  |  |  | 13 mm | 25 mg/L (≈ 60.2 µM) | diameter of the inhibition zone (DIZ) (Vibrio cholerae [15]): 16 mm; MIC (Vibrio cholerae [16]): 25 mg/L (≈ 60.2 µM)
8 | OC(/C(=N/Nc1nc(-c2ccc(Br)cc2)cs1)c1ccccc1)c1ccccc1 (stereo not given) | 19 mm | 6.25 mg/L (≈ 13.5 µM) | 21 mm | 6.25 mg/L (≈ 13.5 µM) | 17 mm | 6.25 mg/L (≈ 13.5 µM) | diameter of the inhibition zone (DIZ) (Vibrio cholerae [15]): 17 mm; MIC (Vibrio cholerae [16]): 12.5 mg/L (≈ 26.9 µM); diameter of the inhibition zone (DIZ) (Candida tropicalis [7]): 16 mm; MIC (Candida tropicalis [8]): 6.25 mg/L (≈ 13.5 µM); diameter of the inhibition zone (DIZ) (Staphylococcus aureus [11]): 17 mm; MIC (Staphylococcus aureus [14]): 12.5 mg/L (≈ 26.9 µM)
9 | COc1ccc(-c2csc(NN=C3CCCC3)n2)cc1 | 17 mm | 12.5 mg/L (≈ 43.5 µM) | 18 mm | 12.5 mg/L (≈ 43.5 µM) | 18 mm | 12.5 mg/L (≈ 43.5 µM) | 
10 | COc1ccc(-c2csc(N/N=C/c3cc(OC)c(OC)c(OC)c3)n2)cc1 |  |  |  |  |  |  | diameter of the inhibition zone (DIZ) (Staphylococcus aureus [11]): <10 mm; MIC (Staphylococcus aureus [14]): 50 mg/L (≈ 125 µM)
11 | COc1ccc(-c2csc(N/N=C/c3ccccc3O)n2)cc1 | 11 mm | 25 mg/L (≈ 76.8 µM) | 12 mm | 25 mg/L (≈ 76.8 µM) |  |  | diameter of the inhibition zone (DIZ) (Candida tropicalis [7]): 13 mm; MIC (Candida tropicalis [8]): 25 mg/L (≈ 76.8 µM)
12 | COc1ccc(-c2csc(N/N=C/c3ccc(O)cc3O)n2)cc1 |  |  |  |  |  |  | diameter of the inhibition zone (DIZ) (Pseudomonas aeruginosa [17]): <10 mm; MIC (Pseudomonas aeruginosa [18]): 50 mg/L (≈ 146 µM)
13 | Oc1ccccc1/C=N/Nc1nc(-c2ccc(Br)cc2)cs1 |  |  |  |  |  |  | diameter of the inhibition zone (DIZ) (Klebsiella pneumoniae [9]): <10 mm; MIC (Klebsiella pneumoniae [10]): 50 mg/L (≈ 134 µM)
14 | Brc1ccc(-c2csc(NN=C3CCCC3)n2)cc1 | 16 mm | 12.5 mg/L (≈ 37.2 µM) | 14 mm | 12.5 mg/L (≈ 37.2 µM) | 15 mm | 12.5 mg/L (≈ 37.2 µM) | diameter of the inhibition zone (DIZ) (Vibrio cholerae [15]): 19 mm; MIC (Vibrio cholerae [16]): 6.25 mg/L (≈ 18.6 µM)
15 | COc1ccc(-c2csc(N/N=C/c3ccc(OC)c(OC)c3)n2)cc1 |  |  |  |  |  |  | diameter of the inhibition zone (DIZ) (Staphylococcus aureus [11]): <10 mm; MIC (Staphylococcus aureus [14]): 50 mg/L (≈ 135 µM)
16 | OC(Cn1cncn1)(Cn1cncn1)c1ccc(F)cc1F [FLUCONAZOLE] | 22 mm | 6.25 mg/L (≈ 20.4 µM) | 22 mm | 6.25 mg/L (≈ 20.4 µM) | 19 mm | 6.25 mg/L (≈ 20.4 µM) | diameter of the inhibition zone (DIZ) (Candida tropicalis [7]): 20 mm; MIC (Candida tropicalis [8]): 6.25 mg/L (≈ 20.4 µM)
17 | Fc1ccccc1/C=N/Nc1nc(-c2ccc(Br)cc2)cs1 |  |  |  |  |  |  | diameter of the inhibition zone (DIZ) (Klebsiella pneumoniae [9]): <10 mm; MIC (Klebsiella pneumoniae [10]): 50 mg/L (≈ 133 µM)
